# According to PMC8006714 (Chemical Communications (Cambridge, England), 2021):
# “Also recorded” adds a separate entry of the source. Structures can show the parent of a compound that is named as a salt.
# Target: T1, SARS-CoV-2 M^pro (Severe acute respiratory syndrome coronavirus 2, UniProt P0DTD1)
# Assay: not given
# Assay type: binding
# Conditions: 1 μM M^pro preincubated with 3 μM N3, 20 μM inhibitor
row,Molecule,covalent modification of M^pro preincubated with N3 (active site selectivity)
1,Cc1ccc(S(=O)(=O)/C=C/C#N)cc1 [BAY 11-7082],multiple adducts observed with unmodified M^pro were diminished; also recorded: to a lesser extent compared to active site free M pro

# Same assay, conditions: 1 μM M^pro, 20 μM inhibitor, 20 mM HEPES pH 7.5, 50 mM NaCl
row,Molecule,covalent modification of M^pro (protein observed SPE-MS)
1,Cc1ccc(S(=O)(=O)/C=C/C#N)cc1 [BAY 11-7082],reacts with Mpro at multiple position

# Same assay, conditions: 1 µM Mpro, 100 fold excess of β-lactam, 25 min to 24 h
row,Molecule,covalent reaction with M^pro (protein observed SPE-MS)
1,CCN1CCN(C(=O)N[C@@H](C(=O)N[C@]2(OC)C(=O)N3C(C(=O)O)=C(CSc4nnnn4C)CS[C@@H]32)[C@H](C)O)C(=O)C1=O [cefbuperazone],evidence for more than one reaction was accrued
2,CO[C@@]1(NC(=O)C2SC(=C(C(N)=O)C(=O)O)S2)C(=O)N2C(C(=O)O)=C(CSc3nnnn3C)CS[C@@H]21 (some centres unmarked) [cefotetan],evidence for more than one reaction was accrued
3,CO[C@@]1(NC(=O)Cc2cccs2)C(=O)N2C(C(=O)O)=C(COC(N)=O)CS[C@@H]21 [cefoxitin],evidence for more than one reaction was accrued
4,O=C(O)[C@H]1/C(=C/CO)O[C@@H]2CC(=O)N21 [clavulanate],(partial) inhibitor fragmentation was observed
5,CO[C@@]1(NC(=O)C(C(=O)O)c2ccc(O)cc2)C(=O)N2C(C(=O)O)=C(CSc3nnnn3C)CO[C@@H]21 (some centres unmarked) [moxalactam],(partial) inhibitor fragmentation was observed
6,C[C@]1(Cn2ccnn2)[C@H](C(=O)O)N2C(=O)C[C@H]2S1(=O)=O [tazobactam],increased over time

# Target: T1, SARS-CoV-2 M^pro
# Assay: biochemical
# Assay type: biochemical
# Conditions: not given
Molecule,% Mpro inhibition at 20 µM,M^pro inhibition (in words),inhibition at a fixed 20 μM inhibitor concentration [%]
"Br.NC1CCc2cc(O)c(O)cc2C1 (racemic) [(±)-2-Amino-6,7-dihydroxy-1,2,3,4-tetrahydronaphthalene hydrobromide]",88.3%,,
"O=Nc1ccc2oc(=O)ccc2c1 [6-Nitroso-1,2-benzopyrone]",99.5%,,
"Br.CCCN1CCc2cc(O)cc3c2[C@H]1Cc1ccc(O)c(O)c1-3 [(R)-(−)-2,10,11-Trihydroxy-n-propylnoraporphine hydrobromide]",98.3%,,
CCCN1CCc2cccc3c2[C@H]1Cc1ccc(O)c(O)c1-3.Cl [(R)-(−)-Propylnorapomorphine hydrochloride],100.0%,,
N.S=C(S)N1CCCC1 [Ammonium pyrrolidinedithiocarbamate],95.1%,,
OC[C@H]1O[C@H]([S-])[C@H](O)[C@@H](O)[C@@H]1O.[Au+] [Aurothioglucose],96.6%,,
Cc1ccc(S(=O)(=O)/C=C/C#N)cc1 [BAY 11-7082],92.0%,,
CC(C)(C)c1ccc(S(=O)(=O)/C=C/C#N)cc1 [Bay 11-7085],95.0%,,
CC=CC1=C(C(=O)O)N2C(=O)[C@@H](NC(=O)[C@H](N)c3ccc(O)cc3)[C@H]2SC1 [Cefprozil],57.5%,,
CO/N=C(\C(=O)N[C@@H]1C(=O)N2C(C(=O)O)=C(CSC(=O)c3ccco3)CS[C@H]12)c1csc(N)n1.Cl [Ceftiofur hydrochloride],65.0%,,
CC(=O)OCC1=C(C(=O)[O-])N2C(=O)[C@@H](NC(=O)CCCC(N)C(=O)O)[C@H]2SC1.[Na+] (some centres unmarked) [Cephalosporin C sodium],78.3%,inhibited,
"CCN(CC)C(=S)SSC(=S)N(CC)CC [Disulfiram, Tetraethylthiuram disulphide]",,,≥ 80
O=C([O-])c1ccccc1-c1c2cc(I)c(=O)c(I)c-2oc2c(I)c([O-])c(I)cc12.[Na+].[Na+] [Erythrosine sodium],86.5%,,
NC(N)=Nc1ccc2[nH]c3c(c2c1)C[C@@]1(O)[C@H]2Cc4ccc(O)c5c4[C@@]1(CCN2CC1CC1)[C@H]3O5.O=C(O)C(F)(F)F.O=C(O)C(F)(F)F [Guanidinyl-naltrindole di-trifluoroacetate],99.6%,,
NC(=O)CI [Iodoacetamide],99.3%,,
O=C(N[C@@H](Cc1ccccc1)C(=O)CCl)OCc1ccccc1 [N-Carbobenzyloxy-L-phenylanlanyl chloromethyl ketone],100.0%,,
CCN[C@@H]1C[C@H](N)[C@@H](O[C@H]2OC(CN)=CC[C@H]2N)[C@H](O)[C@H]1O[C@H]1OC[C@](C)(O)[C@H](NC)[C@H]1O.CCN[C@@H]1C[C@H](N)[C@@H](O[C@H]2OC(CN)=CC[C@H]2N)[C@H](O)[C@H]1O[C@H]1OC[C@](C)(O)[C@H](NC)[C@H]1O.O=S(=O)(O)O.O=S(=O)(O)O.O=S(=O)(O)O.O=S(=O)(O)O.O=S(=O)(O)O [Netilmicin sulfate],89.1%,,
CC(Cc1ccc(O)c(O)c1)C(C)Cc1ccc(O)c(O)c1 (centres unmarked) [Nordihydroguaiaretic acid],97.8%,,
Oc1ccccc1O [Pyrocatechol],85.4,,
"C[n+]1cc2c3c(ccc2c2ccc4cc5c(cc4c21)OCO5)OCO3 [Sanguinarium chloride, Sanguinarine chloride]",98.7%,,
Br.CN=c1nc(-c2ccccc2)n(-c2ccccc2)s1 [Sch-202676 hydrobromide],100.0%,,
CC(C)N(CCC(=O)c1ccc2ccccc2c1)Cc1ccccc1.Cl [ZM 39923 hydrochloride],96.9%,,
[Cl-].[NH3+][Pt-2]([NH3+])([Cl])[n+]1ccccc1 (stereo not drawn) [cis-Diammine(pyridine)chloroplatinum(II) chloride],99.6%,,
"(R)-(−)-2,10,11-Trihydroxyaporphine hybrobromide",99.6%,,
Chlorophyllide copper complex sodium salt,86.5%,,
Colistin sulfate,95.8%,,

# Same assay, conditions: 20, 50 and 100 µM β-lactam; 30 min or 60 min preincubation (Fig. S17)
row,Molecule,M^pro inhibition at single concentrations (in words)
1,C=CC1=C(C(=O)O)N2C(=O)[C@@H](NC(=O)/C(=N\O)c3csc(N)n3)[C@H]2SC1 [Cefdinir],weak time dependent inhibition
2,CO/N=C(\C(=O)N[C@@H]1C(=O)N2C(C(=O)O)=C(CSC(=O)c3ccco3)CS[C@H]12)c1csc(N)n1 [ceftiofur],weak time dependent inhibition
3,O=C1[C@H](CC[C@H](O)c2ccc(F)cc2)[C@@H](c2ccc(O)cc2)N1c1ccc(F)cc1 [ezetimibe],weak time dependent inhibition
4,CC1(C)S[C@@H]2[C@H](NC(=O)Cc3ccccc3)C(=O)N2[C@H]1C(=O)O [penicillin G],No inhibition was observed
5,CC1(C)S[C@@H]2[C@H](NC(=O)COc3ccccc3)C(=O)N2[C@H]1C(=O)O [penicillin V],No inhibition was observed
6,CC1(C)S[C@@H]2[C@H](NC(=O)[C@H](N)c3ccccc3)C(=O)N2[C@H]1C(=O)OC1OC(=O)c2ccccc21 (some centres unmarked) [talampicillin],weak time dependent inhibition

# Same assay, conditions: SPE-MS, concentration not given
row,Molecule,M^pro inhibition (in words)
1,CC1=C(C(=O)O)N2C(=O)[C@@H](NC(=O)[C@H](N)c3ccccc3)[C@H]2SC1 [cephalexin],no Mpro inhibition was observed

# Same assay, conditions: library of FDA-approved small molecules; 20 µM compound, […] Mpro, 2.0 µM TSAVLQ/SGFRK-NH2; read-out: % Mpro inhibition at 20 µM
row,Molecule,inhibition at 20 µM [%]
1,Cc1c(-c2cnccn2)ssc1=S [Oltipraz],99.6

# Same assay, conditions: read-out: % Mpro inhibition at 20 µM
row,Molecule,inhibition at 20 µM [%]
1,"O=C1C=CC(=O)C=C1 [1,4-Benzoquinone]",99.3
2,"O=c1oc(Cl)c(Cl)c2ccccc12 [3,4-Dichloroisocoumarin]",80.4
3,S=C=NCc1ccccc1 [Benzyl isothiocyanate],95.8
4,NC(=O)c1cc[n+](CC2=C(C(=O)[O-])N3C(=O)[C@@H](NC(=O)Cc4cccs4)[C@H]3SC2)cc1 [Cefalonium],9.2
5,CO/N=C(\C(=O)N[C@@H]1C(=O)N2C(C(=O)O)=C(C[N+]3(C)CCCC3)CS[C@H]12)c1csc(N)n1 [Cefepime hydrochloride],20.6
6,NCc1ccccc1CC(=O)N[C@@H]1C(=O)N2C(C(=O)O)=C(CSc3nnnn3CC(=O)O)CS[C@H]12 [Ceforanide],10.2
7,COc1ccc2c(c[n+](C)c3c4cc5c(cc4ccc23)OCO5)c1OC [Chelerythrine chloride],85.2
8,CC(=O)/N=c1/sc(S(N)(=O)=O)nn1C [Methazolamide],82.9
9,Oc1cc(O)cc(/C=C/c2ccc(O)c(O)c2)c1 [Piceatannol],93.8
10,CC[N+]1(C)CCCC(OC(=O)C(O)(c2ccccc2)c2ccccc2)C1 (centres unmarked) [Pipenzolate bromide],100
11,"C[n+]1cc2c3c(ccc2c2ccc4cc5c(cc4c21)OCO5)OCO3 [Sanguinarium chloride, Sanguinarine chloride]",100

# Same assay, conditions: read-out: % Mpro inhibition at 20 µM, LOPAC1280 library; 20 µM compound, […] Mpro, 2.0 µM TSAVLQ/SGFRK-NH2
row,Molecule,inhibition at 20 µM [%]
1,Oc1cc2c(cc1O)CN(C(=S)NCCc1ccc(Cl)cc1)CCC2 [Capsazepine],94.5
2,N[C@@H](C(=O)N[C@@H]1C(=O)N2C(C(=O)O)=C(Cl)CS[C@H]12)c1ccccc1 [Cefaclor],8.7
3,"CCN(CC)C(=S)SSC(=S)N(CC)CC [Disulfiram, Tetraethylthiuram disulphide]",97.5

# Same assay, conditions: read-out: % Mpro inhibition at 20 µM, library of FDA-approved small molecules; 20 µM compound, […] Mpro, 2.0 µM TSAVLQ/SGFRK-NH2
row,Molecule,inhibition at 20 µM [%]
1,"CCN(CC)C(=S)SSC(=S)N(CC)CC [Disulfiram, Tetraethylthiuram disulphide]",99.1
2,O=[N+]([O-])c1ccc(O)c2ncccc12 [Nitroxoline],96
